# pIC50: −log10 of the molar value.
# Tested on: 521955-158-R2-J5-PDC complex spheroid viability
# Assay: Anticancer human tumor 521955-158-R2-J5-PDC patient-derived pancreatic carcinoma cell line growth inhibition
# Settings: for pIC50: curve of first compound; for viability, T/C: stronger effect = lower value
# Text: Multicellular complex tumor spheroid response to LSD1 Inhibitor Iadademstat in combination with a variety of drugs and investigational agents in selected tumor cell lines
# The current study was undertaken to assess response to LSD1 inhibitors in combination with standard-of-care drugs and investigational agents in solid tumor complex spheroid models as well as in the K-562 leukemia. Complex spheroids include a stromal component modeled by human endothelial cells (HUVEC) and fibroblasts modeled by human mesenchymal stem cells (MSCs). The concentration ranges selected for each drug and investigational agent were based upon clinically achievable concentrations if the clinical Cmax of the agent was known.
# Compounds. The drugs and investigational agents used in this study are listed on Table 1. All of the agents used, including staurosporine (NSC755774) and gemcitabine (NSC613327), were obtained from the Developmental Therapeutics Program, NCI. FDA-approved anticancer drugs are available from the NCI at http://dtp.nci.nih.gov/branches/dscb/oncology_drugset_explanation.html. Drugs and investigational agents were >95% pure by proton nuclear magnetic resonance (NMR) and liquid chromatography/mass spectrometry (LC/MS). Stock solutions were prepared at 400x in DMSO, stored at -70 degrees C, and diluted in fresh medium prior to their use. The final concentration of DMSO in cell culture wells never exceeded 0.25% (v/v). The FDA-approved anticancer drug set is available from the Developmental Therapeutics Program at https://dtp.cancer.gov/organization/dscb/obtaining/available_plates.htm. All drugs and investigational agents were tested over a range starting from a high concentration at or near the clinical Cmax and decreasing in half-log increments. If the clinical Cmax for an agent had not been determined, the highest concentration tested was 10 microM.
# Cell Lines. The patient-derived cancer cell (PDC) lines: 292921-168-R-J2-PDC, K24384-001-R-PDC, and 521955-158-R2-J5-PDC pancreatic carcinomas, 556581-035-R-J1 ovarian carcinoma, 324938-238-R-J1-PDC, 855422-203-R-J1-PDC and 883617-216-R-J1-PDC urothelial bladder carcinomas, 743489-274-T-PDC renal cell carcinoma, 138582-R-J1 Merkel cell tumor, K60290-347-R-J1 and K57222-313-R-J1-PDC glioblastomas, 653999-131-R-J2-PDC, LG0703-F948-PDC, and 349418-098-R-PDC non-small cell lung carcinomas, 885512-296-R-J2-PDC, 171881-019-R-J1-PDC breast carcinomas and 186277-243-T-J2-PDC and 233499-124-R-J2-PDC colon carcinomas were obtained from the NCI Patient-Derived Models Repository (PDMR, https://pdmr.cancer.gov). The established cell lines NCI/ADR-RES (RRID:CVCL_14520 and OVCAR-5 (RRID:CVCL_1628) ovarian carcinomas, 786-O (RRID:CVCL_1051) and A498 (RRID:CVCL_A498) renal cell carcinoma, NCI-H211 (ATCC, cat. CRL-5824; RRID:CVCL_1529), NCI-H196 (ATCC, cat. CRL-5823, RRID:CVCL_1509), SW 1271 (ATCC, cat. CRL-2177, RRID:CVCL_1716) and NCI-H1876 (ATCC, cat. CRL-5902, RRID:CVCL_1503) small cell lung carcinomas, MDA-MB-231 (RRID:CVCL_0062) and MDA-MB-468 (RRID:CVCL_0419)breast carcinomas (10-12). Pooled donor human umbilical vein endothelial cells (HUVEC, Lonza, cat. CC-2519) and human mesenchymal stem cells (hMSC, Lonza, cat. PT-2501) were purchased from Lonza (Walkersville, MD).
# Cell Culture. All cells were maintained in an incubator at 37 degrees C and 5% CO2 with 95% humidity. The PDC lines were cultured according to standard operating procedures established by the NCI PDMR (https://pdmr.cancer.gov). Briefly all PDCs were thawed and cultured in Matrigel-coated flasks prepared with a working solution of 1X Ham's F-12 nutrient mix, without supplementation (Invitrogen, Waltham, MA, cat. 11765054), 100 U/mL penicillin-streptomycin (Invitrogen, cat. 15140122), and 2.5% Matrigel (Corning Inc., Corning, NY, cat. 354248) for the first three passages. […]
# [1] = second compound 0.1 µM, first compound 0.0316 µM
# [2] = second compound 0.1 µM, first compound 0.1 µM
# [3] = second compound 0.316 µM, first compound 0.0316 µM
# [4] = second compound 0.316 µM, first compound 0.1 µM
# [5] = second compound 1 µM, first compound 0.0316 µM
# [6] = second compound 1 µM, first compound 0.1 µM
# [7] = second compound 3.16 µM, first compound 0.0316 µM
# [8] = second compound 3.16 µM, first compound 0.1 µM
# [9] = second compound 10 µM, first compound 0.0316 µM
# [10] = second compound 10 µM, first compound 0.1 µM
# 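Note: spheroids exposed to agents for seven days.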
# 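Throughout, for viability, T/C: percent of DMSO vehicle control luminescence viability.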
structure (smiles),measurement,setting,value
Nc1ccccc1NC(=O)c1ccc(CNC(=O)OCc2cccnc2)cc1 + NC1CC1c1ccc(-c2cccc(O)c2)cc1,pIC50,second compound 0.1 µM,6.37
same,pIC50,second compound 0.316 µM,6.41
same,pIC50,second compound 1 µM,6.35
same,pIC50,second compound 3.16 µM,6.34
same,pIC50,second compound 10 µM,6.39
same,"viability, T/C","second compound 0.1 µM, first compound 0.00949 µM",89.2%
same,"viability, T/C","second compound 0.1 µM, first compound 0.03 µM",101%
same,"viability, T/C","second compound 0.1 µM, first compound 0.0949 µM",83.6%
same,"viability, T/C","second compound 0.1 µM, first compound 0.3 µM",62.8%
same,"viability, T/C","second compound 0.1 µM, first compound 0.949 µM",22.8%
same,"viability, T/C","second compound 0.1 µM, first compound 3 µM",0.44%
same,"viability, T/C","second compound 0.316 µM, first compound 0.00949 µM",83.7%
same,"viability, T/C","second compound 0.316 µM, first compound 0.03 µM",88.8%
same,"viability, T/C","second compound 0.316 µM, first compound 0.0949 µM",77.9%
same,"viability, T/C","second compound 0.316 µM, first compound 0.3 µM",59.9%
same,"viability, T/C","second compound 0.316 µM, first compound 0.949 µM",19.9%
same,"viability, T/C","second compound 0.316 µM, first compound 3 µM",0.28%
same,"viability, T/C","second compound 1 µM, first compound 0.00949 µM",90.4%
same,"viability, T/C","second compound 1 µM, first compound 0.03 µM",88.5%
same,"viability, T/C","second compound 1 µM, first compound 0.0949 µM",77.1%
same,"viability, T/C","second compound 1 µM, first compound 0.3 µM",67.8%
same,"viability, T/C","second compound 1 µM, first compound 0.949 µM",19.9%
same,"viability, T/C","second compound 1 µM, first compound 3 µM",1.47%
same,"viability, T/C","second compound 3.16 µM, first compound 0.00949 µM",84.2%
same,"viability, T/C","second compound 3.16 µM, first compound 0.03 µM",89.1%
same,"viability, T/C","second compound 3.16 µM, first compound 0.0949 µM",82.9%
same,"viability, T/C","second compound 3.16 µM, first compound 0.3 µM",70%
same,"viability, T/C","second compound 3.16 µM, first compound 0.949 µM",14.2%
same,"viability, T/C","second compound 3.16 µM, first compound 3 µM",0.23%
same,"viability, T/C","second compound 10 µM, first compound 0.00949 µM",90.3%
same,"viability, T/C","second compound 10 µM, first compound 0.03 µM",85.1%
same,"viability, T/C","second compound 10 µM, first compound 0.0949 µM",83.7%
same,"viability, T/C","second compound 10 µM, first compound 0.3 µM",65.3%
same,"viability, T/C","second compound 10 µM, first compound 0.949 µM",5.98%
same,"viability, T/C","second compound 10 µM, first compound 3 µM",0.28%
CC1COCCN1c1cc(C2(S(C)(=N)=O)CC2)nc(-c2ccnc3[nH]ccc23)n1 (stereo not given) + NC1CC1c1ccc(-c2cccc(O)c2)cc1,pIC50,second compound 0.1 µM,6.25
same,pIC50,second compound 0.316 µM,6.27
same,pIC50,second compound 1 µM,6.18
same,pIC50,second compound 3.16 µM,6.23
same,pIC50,second compound 10 µM,6.25
same,"viability, T/C",[1],82.3%
same,"viability, T/C",[2],93.9%
same,"viability, T/C","second compound 0.1 µM, first compound 0.316 µM",77.7%
same,"viability, T/C","second compound 0.1 µM, first compound 1 µM",22.6%
same,"viability, T/C","second compound 0.1 µM, first compound 3.16 µM",15.7%
same,"viability, T/C","second compound 0.1 µM, first compound 10 µM",20.8%
same,"viability, T/C",[3],84%
same,"viability, T/C",[4],86.3%
same,"viability, T/C","second compound 0.316 µM, first compound 0.316 µM",74.5%
same,"viability, T/C","second compound 0.316 µM, first compound 1 µM",22.4%
same,"viability, T/C","second compound 0.316 µM, first compound 3.16 µM",15.2%
same,"viability, T/C","second compound 0.316 µM, first compound 10 µM",20.4%
same,"viability, T/C",[5],83%
same,"viability, T/C",[6],90.8%
same,"viability, T/C","second compound 1 µM, first compound 0.316 µM",87.6%
same,"viability, T/C","second compound 1 µM, first compound 1 µM",29.7%
same,"viability, T/C","second compound 1 µM, first compound 3.16 µM",15.9%
same,"viability, T/C","second compound 1 µM, first compound 10 µM",16.8%
same,"viability, T/C",[7],81%
same,"viability, T/C",[8],80.2%
same,"viability, T/C","second compound 3.16 µM, first compound 0.316 µM",78.5%
same,"viability, T/C","second compound 3.16 µM, first compound 1 µM",25.5%
same,"viability, T/C","second compound 3.16 µM, first compound 3.16 µM",14.9%
same,"viability, T/C","second compound 3.16 µM, first compound 10 µM",15.3%
same,"viability, T/C",[9],88.8%
same,"viability, T/C",[10],102%
same,"viability, T/C","second compound 10 µM, first compound 0.316 µM",69.8%
same,"viability, T/C","second compound 10 µM, first compound 1 µM",30.7%
same,"viability, T/C","second compound 10 µM, first compound 3.16 µM",14.9%
same,"viability, T/C","second compound 10 µM, first compound 10 µM",17.6%
Cn1ncnc1C1c2n[nH]c(=O)c3cc(F)cc(c23)NC1c1ccc(F)cc1 (stereo not given) + NC1CC1c1ccc(-c2cccc(O)c2)cc1,pIC50,second compound 0.1 µM,< 7.00
same,pIC50,second compound 0.316 µM,< 7.00
same,pIC50,second compound 1 µM,< 7.00
same,pIC50,second compound 3.16 µM,< 7.00
same,pIC50,second compound 10 µM,< 7.00
same,"viability, T/C","second compound 0.1 µM, first compound 0.000316 µM",91.4%
same,"viability, T/C","second compound 0.1 µM, first compound 0.001 µM",89.3%
same,"viability, T/C","second compound 0.1 µM, first compound 0.00316 µM",92.2%
same,"viability, T/C","second compound 0.1 µM, first compound 0.01 µM",80.4%
same,"viability, T/C",[1],77.3%
same,"viability, T/C",[2],76.2%
same,"viability, T/C","second compound 0.316 µM, first compound 0.000316 µM",91.5%
same,"viability, T/C","second compound 0.316 µM, first compound 0.001 µM",100%
same,"viability, T/C","second compound 0.316 µM, first compound 0.00316 µM",92.9%
same,"viability, T/C","second compound 0.316 µM, first compound 0.01 µM",88.8%
same,"viability, T/C",[3],83%
same,"viability, T/C",[4],78.9%
same,"viability, T/C","second compound 1 µM, first compound 0.000316 µM",82%
same,"viability, T/C","second compound 1 µM, first compound 0.001 µM",83.8%
same,"viability, T/C","second compound 1 µM, first compound 0.00316 µM",93.1%
same,"viability, T/C","second compound 1 µM, first compound 0.01 µM",91.8%
same,"viability, T/C",[5],94.9%
same,"viability, T/C",[6],81.1%
same,"viability, T/C","second compound 3.16 µM, first compound 0.000316 µM",94.9%
same,"viability, T/C","second compound 3.16 µM, first compound 0.001 µM",103%
same,"viability, T/C","second compound 3.16 µM, first compound 0.00316 µM",101%
same,"viability, T/C","second compound 3.16 µM, first compound 0.01 µM",95%
same,"viability, T/C",[7],89%
same,"viability, T/C",[8],84.5%
same,"viability, T/C","second compound 10 µM, first compound 0.000316 µM",97.8%
same,"viability, T/C","second compound 10 µM, first compound 0.001 µM",96.1%
same,"viability, T/C","second compound 10 µM, first compound 0.00316 µM",108%
same,"viability, T/C","second compound 10 µM, first compound 0.01 µM",94.4%
same,"viability, T/C",[9],90.2%
same,"viability, T/C",[10],87.7%
